Test results reported in the supplement of paper PMC11451515.

System: SEM cells
Test: cell viability relative to DMSO control; higher = less cytotoxic
Conditions: 48 h
In short: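 Three leukemia lines were tested: NOMO1 and SEM at 500 cells/well and P12-Ichikawa at 1000 cells/well. Each was adapted for at least four passages in each medium and seeded in 5 μl in 1536-well plates, and library compounds in DMSO were pin-dosed from 47 μM to 0.79 nM in 11 threefold steps. After 48 h at 37°C, CellTiter-Glo One luminescence was read. Viability is a percentage relative to DMSO wells on each plate, with cell-free wells as background.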

[1] = HPLM + 10% dialyzed FBS, 0.000781 µM
[2] = HPLM + 10% dialyzed FBS, 0.00234 µM
[3] = HPLM + 10% dialyzed FBS, 0.00702 µM
[4] = HPLM + 10% dialyzed FBS, 0.0211 µM
[5] = HPLM + 10% dialyzed FBS, 0.0632 µM
[6] = HPLM + 10% dialyzed FBS, 0.19 µM
[7] = HPLM + 10% dialyzed FBS, 0.569 µM
[8] = HPLM + 10% dialyzed FBS, 1.71 µM
[9] = HPLM + 10% dialyzed FBS, 5.12 µM
[10] = HPLM + 10% dialyzed FBS, 15.4 µM
[11] = HPLM + 10% dialyzed FBS, 46.1 µM
[12] = RPMI 5 mM glucose + 10% FBS, 0.000781 µM
[13] = RPMI 5 mM glucose + 10% FBS, 0.00234 µM
[14] = RPMI 5 mM glucose + 10% FBS, 0.00702 µM
[15] = RPMI 5 mM glucose + 10% FBS, 0.0211 µM
[16] = RPMI 5 mM glucose + 10% FBS, 0.0632 µM
[17] = RPMI 5 mM glucose + 10% FBS, 0.19 µM
[18] = RPMI 5 mM glucose + 10% FBS, 0.569 µM
[19] = RPMI 5 mM glucose + 10% FBS, 1.71 µM
[20] = RPMI 5 mM glucose + 10% FBS, 5.12 µM
[21] = RPMI 5 mM glucose + 10% FBS, 15.4 µM
[22] = RPMI 5 mM glucose + 10% FBS, 46.1 µM
[23] = RPMI 5 mM glucose + 10% dialyzed FBS, 0.000781 µM
[24] = RPMI 5 mM glucose + 10% dialyzed FBS, 0.00234 µM
[25] = RPMI 5 mM glucose + 10% dialyzed FBS, 0.00702 µM
[26] = RPMI 5 mM glucose + 10% dialyzed FBS, 0.0211 µM
[27] = RPMI 5 mM glucose + 10% dialyzed FBS, 0.0632 µM
[28] = RPMI 5 mM glucose + 10% dialyzed FBS, 0.19 µM
[29] = RPMI 5 mM glucose + 10% dialyzed FBS, 0.569 µM
[30] = RPMI 5 mM glucose + 10% dialyzed FBS, 1.71 µM
[31] = RPMI 5 mM glucose + 10% dialyzed FBS, 5.12 µM
[32] = RPMI 5 mM glucose + 10% dialyzed FBS, 15.4 µM
[33] = RPMI 5 mM glucose + 10% dialyzed FBS, 46.1 µM

| SMILES | cell viability [1] [%] | cell viability [2] [%] | cell viability [3] [%] | cell viability [4] [%] | cell viability [5] [%] | cell viability [6] [%] | cell viability [7] [%] | cell viability [8] [%] | cell viability [9] [%] | cell viability [10] [%] | cell viability [11] [%] | cell viability [12] [%] | cell viability [13] [%] | cell viability [14] [%] | cell viability [15] [%] | cell viability [16] [%] | cell viability [17] [%] | cell viability [18] [%] | cell viability [19] [%] | cell viability [20] [%] | cell viability [21] [%] | cell viability [22] [%] | cell viability [23] [%] | cell viability [24] [%] | cell viability [25] [%] | cell viability [26] [%] | cell viability [27] [%] | cell viability [28] [%] | cell viability [29] [%] | cell viability [30] [%] | cell viability [31] [%] | cell viability [32] [%] | cell viability [33] [%] |
| --- | --- | --- | --- | --- | --- | --- | --- | --- | --- | --- | --- | --- | --- | --- | --- | --- | --- | --- | --- | --- | --- | --- | --- | --- | --- | --- | --- | --- | --- | --- | --- | --- | --- |
| CNCC(O)c1ccc(O)cc1 (stereo not given) | 59.8 | 87.8 | 85.6 | 80.2 | 90.1 | 95.6 | 87.9 | 86.8 | 95.3 | 99.5 | 93.6 | 96.6 | 95.4 | 128 | 103 | 112 | 105 | 113 | 104 | 122 | 114 | 111 | 75.6 | 97.3 | 85.7 | 93.5 | 101 | 108 | 100 | 99.4 | 114 | 99.8 | 87.1 |
| CCN1CCN(CC1)CC(=O)NC2=CC=C(C3=C2C4=C(S3)C=CC=C4)C5=C6O\C(=C/C(=O)C6=CC=C5)N7CCOCC7 | 107 | 98.2 | 109 | 106 | 111 | 93.4 | 88.4 | 30 | 18 | 8.23 | 30.3 | 117 | 108 | 107 | 95.2 | 124 | 91.7 | 82.3 | 55.6 | 14.4 | 8.04 | 27.8 | 137 | 122 | 123 | 116 | 105 | 110 | 88.6 | 71.3 | 24 | 9.66 | 27.2 |
| CNc1nc(Nc2ccc(C(=O)N3CCOCC3)cc2OC)ncc1Cl | – | – | – | – | – | – | – | – | – | – | – | 107 | 120 | 101 | 104 | 113 | 107 | 70.9 | 128 | 97.9 | 92.4 | 42.2 | 123 | 106 | 118 | 111 | 120 | 114 | 78.5 | 114 | 131 | 105 | 68.8 |
| CCN(CC)CCOc1ccc(/C(=C(\Cl)c2ccccc2)c2ccccc2)cc1 | 111 | 118 | 128 | 114 | 118 | 116 | 134 | 125 | 129 | 112 | 101 | 90 | 94.7 | 115 | 116 | 118 | 128 | 124 | 116 | 108 | 116 | 91.6 | 104 | 124 | 125 | 127 | 142 | 144 | 127 | 126 | 123 | 126 | 118 |
| CCc1ccc(CCOc2ccc(CC3SC(=O)NC3=O)cc2)nc1 (stereo not given) | 120 | 115 | 112 | 113 | 124 | 108 | 42.4 | 117 | 122 | 119 | 89.6 | 93.5 | 86.9 | 88.1 | 85.9 | 85.6 | 83.4 | 61 | 94.9 | 87 | 80 | 80.7 | 112 | 115 | 111 | 143 | 129 | 116 | 68.6 | 137 | 122 | 122 | 110 |
| CC(C)(O)CC[C@@H](O)[C@](C)(O)[C@H]1CC[C@@]2(O)C/3=C/C(=O)[C@@H]4C[C@@H](O)[C@@H](O)C[C@]4(C)[C@H]3CC[C@]12C | 115 | 107 | 112 | 97.8 | 97.5 | 110 | 99.7 | 103 | 93.5 | 89.7 | 94.7 | 96.3 | 93.8 | 98.3 | 93.4 | 102 | 98.8 | 85.2 | 97.7 | 96.4 | 87 | 79.8 | 104 | 106 | 103 | 80.2 | 81.7 | 92.8 | 77.3 | 104 | 83.4 | 94.2 | 74.6 |
| O=C1NC(=O)/C(=C/c2ccc3nccc(-c4ccncc4)c3c2)S1 | 108 | 104 | 105 | 107 | 95.5 | 74.5 | 43.9 | 49.5 | 19.7 | 13.7 | 1.01 | 115 | 116 | 134 | 116 | 108 | 86.1 | 55.4 | 48.2 | 23.9 | 7.87 | 1.09 | 105 | 103 | 101 | 111 | 96.7 | 67.8 | 46.9 | 43.4 | 24.3 | 12.8 | 0.853 |
| O=C(O)C1(Cc2cccc(Nc3nccs3)n2)CCC(Oc2cccc(Cl)c2F)CC1 (stereo not given) | 86.3 | 108 | 93.3 | 68.4 | 104 | 101 | 108 | 75.6 | 42 | 28.9 | 18.9 | 97 | 88.9 | 101 | 87.4 | 114 | 96.5 | 102 | 66.5 | 43.1 | 22.2 | 12.7 | 81.9 | 86.5 | 97.5 | 92.6 | 95.1 | 111 | 111 | 68.7 | 43.2 | 25.2 | 17.1 |
| Cn1cnc2c(F)c(Nc3ccc(Br)cc3F)c(C(=O)NOCCO)cc21 | 95.3 | 84.2 | 93.4 | 22 | 105 | 89.5 | 80 | 85.4 | 87.9 | 87.7 | 74.3 | 85.3 | 86.1 | 96.9 | 16 | 94.1 | 108 | 89.2 | 85.9 | 87.1 | 70.9 | 61.6 | 88.1 | 85.5 | 107 | 19.6 | 87.5 | 91.5 | 83.1 | 70.6 | 76.2 | 66 | 52.8 |
| Cc1c(C)n(Cc2ccc(-c3ccccc3C(=O)O)cc2)c2ccc(C(=O)N[C@@H](C)c3ccc([N+](=O)[O-])cc3)cc12 | 106 | 101 | 117 | 105 | 107 | 105 | 116 | 110 | 108 | 109 | 119 | 109 | 109 | 115 | 112 | 118 | 119 | 118 | 124 | 120 | 121 | 110 | 99.2 | 117 | 115 | 112 | 116 | 127 | 120 | 117 | 115 | 115 | 106 |
| C[C@]12CCC(=O)C=C1CC[C@@H]1[C@@H]2[C@@H](O)C[C@@]2(C)[C@H]1CC[C@]2(O)C(=O)CO | 108 | 96.8 | 98.1 | 118 | 104 | 107 | 121 | 121 | 108 | 87.6 | 99.2 | 89.7 | 82.7 | 99.3 | 91.4 | 92.1 | 102 | 94.9 | 97 | 86.1 | 68.2 | 73.4 | 99.2 | 95 | 114 | 102 | 102 | 112 | 96.7 | 94.2 | 92.5 | 70 | 62.7 |
| CCCCC(=O)O[C@]1(C(=O)CO)[C@H](C)C[C@H]2[C@@H]3CCC4=CC(=O)C=C[C@]4(C)[C@@]3(F)[C@@H](O)C[C@@]21C | 102 | 122 | 111 | 96.2 | 92.6 | 87.1 | 83.4 | 75.2 | 71 | 71.4 | 70.9 | 118 | 124 | 139 | 124 | 91.3 | 98.2 | 84.3 | 73.9 | 76.7 | 70.3 | 67.6 | – | – | – | – | – | – | – | – | – | – | – |
| CNCCCC12CCC(c3ccccc31)c1ccccc12 | 96.5 | 108 | 105 | 99.7 | 116 | 114 | 110 | 105 | 93.5 | 89.6 | 59.5 | 87.3 | 97.3 | 98.2 | 99.4 | 76.6 | 104 | 106 | 100 | 90.5 | 85.2 | 63.8 | 113 | 125 | 105 | 110 | 111 | 115 | 128 | 107 | 106 | 118 | 75.5 |
| CC[C@]12CC[C@H]3[C@@H](CCC/4=C/C(=O)CC[C@H]34)[C@@H]1\C=C/[C@@]2(O)C#C | 78.9 | 96.1 | 106 | 102 | 111 | 108 | 115 | 109 | 127 | 110 | 121 | 110 | 107 | 119 | 123 | 131 | 117 | 106 | 124 | 116 | 125 | 116 | 113 | 110 | 108 | 115 | 116 | 120 | 109 | 118 | 115 | 118 | 118 |
| OC[C@H]1O[C@H]([C@H](O)[C@@H]1O)N2\C=C/C(=O)NC2=O | 107 | 107 | 107 | 115 | 123 | 124 | 122 | 103 | 115 | 92.7 | 90.7 | 96.8 | 105 | 102 | 102 | 107 | 91.9 | 114 | 78.3 | 93.2 | 78.3 | 86.1 | 101 | 110 | 103 | 106 | 92.8 | 117 | 108 | 91 | 105 | 94.3 | 88.3 |
| CC(C)(C#N)c1cc(Cn2cncn2)cc(C(C)(C)C#N)c1 | 101 | 92.6 | 87.4 | 103 | 111 | 104 | 21.8 | 112 | 116 | 117 | 113 | 123 | 116 | 115 | 102 | 109 | 106 | 21.3 | 122 | 126 | 125 | 111 | – | – | – | – | – | – | – | – | – | – | – |
